Data as given in US20120135013A1, “CD45 and Methods and Compounds Related Thereto” (priority 2007, published 2012).

Columns and labels:
[1] = biological target: T1, Cdc25B (Homo sapiens, UniProt P30305); assay: biochemical; conditions: read-out: % Inhibition (cdc25B)
T1 sequence (P30305 1-580): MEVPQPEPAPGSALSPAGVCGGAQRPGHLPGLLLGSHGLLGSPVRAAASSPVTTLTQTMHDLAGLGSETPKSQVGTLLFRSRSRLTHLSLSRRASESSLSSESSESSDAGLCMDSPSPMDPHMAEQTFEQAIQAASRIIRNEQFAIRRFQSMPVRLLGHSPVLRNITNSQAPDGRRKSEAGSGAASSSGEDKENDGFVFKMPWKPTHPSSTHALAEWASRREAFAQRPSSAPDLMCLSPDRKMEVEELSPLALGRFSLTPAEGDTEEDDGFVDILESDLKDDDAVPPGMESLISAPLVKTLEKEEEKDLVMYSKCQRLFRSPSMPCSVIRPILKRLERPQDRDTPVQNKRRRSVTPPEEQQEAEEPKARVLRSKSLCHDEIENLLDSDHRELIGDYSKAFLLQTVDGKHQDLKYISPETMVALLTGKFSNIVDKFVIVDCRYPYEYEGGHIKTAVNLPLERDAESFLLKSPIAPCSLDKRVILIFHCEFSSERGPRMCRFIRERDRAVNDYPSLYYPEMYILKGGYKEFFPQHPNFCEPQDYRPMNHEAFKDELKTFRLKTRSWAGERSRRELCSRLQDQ

[2] = biological target: LF (Bacillus anthracis, UniProt P15917); type: biochemical
Chain of LF (P15917 34-809 limits assumed): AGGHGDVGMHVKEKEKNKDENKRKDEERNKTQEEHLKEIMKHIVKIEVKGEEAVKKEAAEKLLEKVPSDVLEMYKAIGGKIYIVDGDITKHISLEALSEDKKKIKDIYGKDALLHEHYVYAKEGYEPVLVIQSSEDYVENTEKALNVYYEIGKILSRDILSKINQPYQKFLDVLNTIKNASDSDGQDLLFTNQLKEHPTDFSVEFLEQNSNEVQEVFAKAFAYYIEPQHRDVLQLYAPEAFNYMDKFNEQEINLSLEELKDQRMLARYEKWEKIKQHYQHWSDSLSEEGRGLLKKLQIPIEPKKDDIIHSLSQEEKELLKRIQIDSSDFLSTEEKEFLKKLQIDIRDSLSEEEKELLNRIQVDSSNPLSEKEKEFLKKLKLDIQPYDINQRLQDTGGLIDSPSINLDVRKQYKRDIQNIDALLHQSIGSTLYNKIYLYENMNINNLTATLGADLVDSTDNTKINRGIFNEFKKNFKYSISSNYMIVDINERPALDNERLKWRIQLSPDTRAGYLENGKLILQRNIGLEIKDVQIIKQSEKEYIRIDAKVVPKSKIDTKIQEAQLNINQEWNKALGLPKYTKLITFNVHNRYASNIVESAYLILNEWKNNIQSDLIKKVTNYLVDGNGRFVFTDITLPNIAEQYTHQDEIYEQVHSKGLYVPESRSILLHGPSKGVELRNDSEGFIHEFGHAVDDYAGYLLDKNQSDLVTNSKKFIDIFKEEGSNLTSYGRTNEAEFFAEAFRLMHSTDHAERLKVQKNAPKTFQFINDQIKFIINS

[3] = system: proteasome; type: biochemical, mouse
[4] = system: Sterne B. anthracis spores; type: cell-based; conditions: 10 μM
[5] = biological target: T2, CD45 (Homo sapiens, UniProt P08575); assay: biochemical; conditions: read-out: inhibition of the phosphatase activity of CD45
T2 construct: purchased Upstate (Lake Placid, N.Y.)
T2 sequence (P08575 26-1306): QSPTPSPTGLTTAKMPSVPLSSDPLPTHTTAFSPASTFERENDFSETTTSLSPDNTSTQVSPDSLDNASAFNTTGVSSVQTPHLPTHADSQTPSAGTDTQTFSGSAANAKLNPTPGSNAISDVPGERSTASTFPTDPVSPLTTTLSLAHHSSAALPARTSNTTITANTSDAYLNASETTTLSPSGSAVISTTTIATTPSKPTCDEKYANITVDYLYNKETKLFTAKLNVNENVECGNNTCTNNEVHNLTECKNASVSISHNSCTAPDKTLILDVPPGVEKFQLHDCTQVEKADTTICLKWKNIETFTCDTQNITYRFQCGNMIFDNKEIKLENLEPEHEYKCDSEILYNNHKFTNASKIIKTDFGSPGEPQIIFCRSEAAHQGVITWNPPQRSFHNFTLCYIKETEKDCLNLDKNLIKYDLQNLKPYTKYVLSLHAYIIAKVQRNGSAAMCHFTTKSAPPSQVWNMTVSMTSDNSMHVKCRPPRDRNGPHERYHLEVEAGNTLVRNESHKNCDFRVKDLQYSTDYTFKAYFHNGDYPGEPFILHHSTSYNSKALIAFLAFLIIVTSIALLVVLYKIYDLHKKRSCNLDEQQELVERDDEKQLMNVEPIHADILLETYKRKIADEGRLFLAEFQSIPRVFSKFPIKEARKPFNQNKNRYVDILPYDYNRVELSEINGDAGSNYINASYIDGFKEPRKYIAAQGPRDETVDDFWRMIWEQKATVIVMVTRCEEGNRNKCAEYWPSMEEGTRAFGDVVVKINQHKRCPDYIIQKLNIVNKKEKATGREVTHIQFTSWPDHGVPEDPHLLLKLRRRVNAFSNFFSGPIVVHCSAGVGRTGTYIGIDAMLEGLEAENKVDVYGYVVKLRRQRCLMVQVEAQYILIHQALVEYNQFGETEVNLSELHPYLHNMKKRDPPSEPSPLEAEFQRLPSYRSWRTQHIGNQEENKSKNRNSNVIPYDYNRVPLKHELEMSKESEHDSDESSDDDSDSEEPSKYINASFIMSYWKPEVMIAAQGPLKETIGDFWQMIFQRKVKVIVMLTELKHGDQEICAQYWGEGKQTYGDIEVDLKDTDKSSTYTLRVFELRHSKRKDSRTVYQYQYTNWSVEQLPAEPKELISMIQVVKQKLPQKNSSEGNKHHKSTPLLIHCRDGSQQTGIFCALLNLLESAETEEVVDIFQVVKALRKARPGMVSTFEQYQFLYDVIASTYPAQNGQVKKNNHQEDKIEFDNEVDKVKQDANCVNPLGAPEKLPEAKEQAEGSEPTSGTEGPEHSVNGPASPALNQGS

[6] = biological target: T1, Cdc25B; conditions: Lazo et al. (2002); cited from earlier work
[7] = system: CD45; assay: immunoblot of CD45 protein levels; type: cell-based, mouse; conditions: 72 hours, vs untreated or scrambled PMO
[8] = system: CD45; assay: CD45 phosphatase activity after immunoprecipitation from cell lysates; type: cell-based, mouse; conditions: 8 μM, 72 hours
[9] = system: MEK; type: cell-based, mouse
[10] = system: Ames B. anthracis spores; conditions: in vivo

| Compound | inhibition at 10 µM [1] [%] | inhibition of LF enzymatic activity (cleavage of peptide substrate) [2] | inhibition of proteasome activity [3] | anti-microbial activity (growth of the bacteria) [4] | inhibition of Cdc25, previously reported [6] | further results |
| --- | --- | --- | --- | --- | --- | --- |
| O=C1C=C(SCCO)C(=O)c2ccccc21 [NSC 148596] | 67 | None of the compounds were observed to inhibit | – | – | – | – |
| NC(=O)CCCSC1=CC(=O)c2ccccc2C1=O [NSC 270012] | 72 | None of the compounds were observed to inhibit | neither NSC 95397 nor NSC 270012 inhibited proteasome activity | do not inhibit the growth of the bacteria | – | – |
| O=C1C(SCCO)=C(SCCO)C(=O)c2ccccc21 [NSC 95397] | 83 | None of the compounds were observed to inhibit | neither NSC 95397 nor NSC 270012 inhibited proteasome activity | do not inhibit the growth of the bacteria | previously reported to inhibit Cdc25 | inhibition at 10 µM [5]: ~94% |
| CD45 PMO (CCACAAACCCATGGTCATATC; all phosphorodiamidate morpholino (PMO)) | – | – | – | – | – | CD45 protein levels by immunoblot [7]: dose dependent reduction; CD45 phosphatase activity following immunoprecipitation [8]: concomitant reduction in CD45 phosphatase activity; MEK cleavage [9]: MEK cleavage was not prevented; antibody titers in surviving mice [10]: developed protective antigen specific and lethal toxin neutralizing antibody titers; protection on re-challenge with Ames B. anthracis spores [10]: completely protected; survival ([10]; 100 mg/kg/day): greatly increased |
| NC(=O)CCSC1=CC(=O)c2ccccc2C1=O [NSC 270011] | 25 | None of the compounds were observed to inhibit | – | – | – | – |
| Cc1ccc2c(c1C)-c1c(ccc(C)c1C)C(=O)C2=O [NSC 135880] | 99 | None of the compounds were observed to inhibit | – | – | previously reported to inhibit Cdc25 | – |
